Here are results for one compound from patent US8426417B2, “Substituted pyrrolo-pyrimidine derivatives, process for their preparation and their use as kinase inhibitors” (priority 2007, dated 2013).

This experiment has as its target T1, PLK1 enzyme KD (Kinase Domain) 2-345 (Homo sapiens, UniProt P53350).
T1 construct: PLK1 kinase domain (corresponding to residues 2-345) was PCR amplified; His tag (N, cleaved yes); TEV cleavage site (N, cleaved yes); made in house; host or cells: High5 insect cells (baculovirus generated in Sf9)
Put plainly: Biochemical assay for inhibitors of PLK-1 kinase activity (trans-phosphorylation, Dowex resin, 33P-ATP). The conditions noted are these: PLK1 KD 2-345 3 nM, 40 microM ATP, 85 microM alpha-casein, 60 minutes at room temperature. As to the method: The inhibitory activity of putative kinase inhibitors and the potency of selected compounds were determined using a trans-phosphorylation assay.
Three cycles of mixing are done immediately after the addition of the resin.

Usually IC50 stands for the point on the concentration scale where inhibition reaches its midpoint.

T1 sequence (P53350 2-345): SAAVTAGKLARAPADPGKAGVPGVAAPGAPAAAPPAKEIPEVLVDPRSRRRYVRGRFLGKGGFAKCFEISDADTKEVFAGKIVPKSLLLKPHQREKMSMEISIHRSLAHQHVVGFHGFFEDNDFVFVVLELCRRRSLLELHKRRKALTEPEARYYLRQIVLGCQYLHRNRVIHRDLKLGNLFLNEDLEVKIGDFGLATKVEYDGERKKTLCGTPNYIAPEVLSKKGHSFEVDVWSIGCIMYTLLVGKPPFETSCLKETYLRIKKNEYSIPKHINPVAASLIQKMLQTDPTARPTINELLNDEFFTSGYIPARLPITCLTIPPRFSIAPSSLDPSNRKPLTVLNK

`O=C1NCCc2[nH]c(-c3ccnc(Nc4ccccc4)n3)cc21` [Reference Compound] displayed an IC50 of 110 nM.
